In US20090202618A1, “Dna vaccines encoding hsp60 peptide fragments for treating autoimmune diseases” (Yeda Research & Development Co. Ltd, priority 2003, published 2009):

System: LNC
Assay: LNC proliferative response to overlapping peptides of HSP60
Format: cell-based, Lewis rats
Conditions: day 26 after AA induction, SI±SEM, SI<2 considered not significant
Protocol: T-cell proliferation assays were performed at day 26 after the induction of AA, when the disease is at its peak, as previously described (Quintana et al., 2002). Briefly, popliteal and inguinal lymph node cells (LNC), were cultured in quadruplicates in 200 μl round bottom microtiter wells (Costar Corp., Cambridge, USA) at 2×10^5 cells per well with or without antigen. The T-cell mitogen Concanavalin A (Con A) was used as a positive control for T-cell proliferation. Cultures were incubated for 96 hr at 37° C. in a humidified atmosphere of 5% CO2. T-cell responses were detected by the incorporation of [methyl-3H]-thymidine (Amersham, Buckinghamshire, UK; 1 μCi/well), which was added to the wells for the last 18 hr. The stimulation index (SI) was computed as the ratio of the mean c.p.m. of antigen- or mitogen-containing wells to control wells cultured with medium alone. The results of T-cell proliferation experiments are shown as SI±SEM, T-cell responses with SI<2 were considered not significant.
It was previously reported that the suppression of AA by pHSP60 DNA vaccination was associated with T-cell reactivity to a single HSP60 peptide epitope, Hu3 (Quintana et al., 2003). […]

With “KFGADARALMLQGVDLLADA (human hsp60 epitope) [Hu3]” the “Stimulation Index (SI)” value (LNC from pHSP70-vaccinated rats) was “did not respond” and the “Stimulation Index (SI)” value (LNC from pcDNA3-vaccinated rats) was “did not respond”.
